According to patent publication US20260285850A1, “SUBSTITUTED OXAZOLIDINONES AND IMIDAZOLINONES AS HERBICIDES” (FMC CORPORATION, priority 2023, published 2026):

Legend:
Type in all cases: in vivo
soybean (Glycine max) [1] = assay: Test A preemergence soil spray, visual injury rating 0-100; conditions: 10 days, 0 = no effect, 100 = complete control
Method in brief: (§1)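 Seeds sown in loam-sand blend got a preemergence directed soil spray, or emerged plants (2-10 cm, one- to two-leaf) got a postemergence spray, of compound in non-phytotoxic solvent with surfactant. After 10 days in greenhouse, injury rated visually versus untreated controls on a 0 (no effect) to 100 (complete control) scale.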

[2] = tested on: ragweed (common ragweed, Ambrosia artemisiifolia); assay: as above; conditions: 10 days, 0 = no effect, 100 = complete control
Method in brief: as §1

[3] = tested on: green foxtail (Setaria viridis); assay: as above; conditions: 10 days, 0 = no effect, 100 = complete control
Method in brief: as §1

[4] = tested on: barnyardgrass (Echinochloa crus-galli); assay: as above; conditions: 10 days, 0 = no effect, 100 = complete control
Method in brief: as §1

[5] = tested on: ryegrass, Italian (italian ryegrass, Lolium multiflorum); assay: as above; conditions: 10 days, 0 = no effect, 100 = complete control
Method in brief: as §1

[6] = tested on: wheat (Triticum aestivum); assay: as above; conditions: 10 days, 0 = no effect, 100 = complete control
Method in brief: as §1

kochia (Bassia scoparia) [7] = assay: as above; conditions: 10 days, 0 = no effect, 100 = complete control
Method in brief: as §1

[8] = tested on: blackgrass (Alopecurus myosuroides); assay: as above; conditions: 10 days, 0 = no effect, 100 = complete control
Method in brief: as §1

[9] = tested on: oat, wild (wild oat, Avena fatua); assay: as above; conditions: 10 days, 0 = no effect, 100 = complete control
Method in brief: as §1

[10] = tested on: palmer (palmer amaranth, palmer pigweed, Amaranthus palmeri); assay: as above; conditions: 10 days, 0 = no effect, 100 = complete control
Method in brief: as §1

corn (Zea mays) [11] = assay: as above; conditions: 10 days, 0 = no effect, 100 = complete control
Method in brief: as §1

[12] = tested on: horseweed (Erigeron canadensis); assay: Test A postemergence application, visual injury rating 0-100; conditions: 10 days
Method in brief: as §1

soybean (Glycine max) [13] = assay: as above; conditions: 10 days
Method in brief: as §1

[14] = tested on: ragweed (common ragweed, Ambrosia artemisiifolia); assay: as above; conditions: 10 days
Method in brief: as §1

[15] = tested on: green foxtail (Setaria viridis); assay: as above; conditions: 10 days
Method in brief: as §1

[16] = tested on: barnyardgrass (Echinochloa crus-galli); assay: as above; conditions: 10 days
Method in brief: as §1

[17] = tested on: ryegrass, Italian (italian ryegrass, Lolium multiflorum); assay: as above; conditions: 10 days
Method in brief: as §1

[18] = tested on: wheat (Triticum aestivum); assay: as above; conditions: 10 days
Method in brief: as §1

kochia (Bassia scoparia) [19] = assay: as above; conditions: 10 days
Method in brief: as §1

[20] = tested on: blackgrass (Alopecurus myosuroides); assay: as above; conditions: 10 days
Method in brief: as §1

[21] = tested on: galium (catchweed bedstraw, Galium aparine); assay: as above; conditions: 10 days
Method in brief: as §1

[22] = tested on: oat, wild (wild oat, Avena fatua); assay: as above; conditions: 10 days
Method in brief: as §1

[23] = tested on: palmer (palmer amaranth, palmer pigweed, Amaranthus palmeri); assay: as above; conditions: 10 days
Method in brief: as §1

corn (Zea mays) [24] = assay: as above; conditions: 10 days
Method in brief: as §1

[25] = tested on: ducksalad (Heteranthera limosa); assay: Test B flooded paddy test, visual plant response rating 0-100; conditions: 250 g ai/ha, Flood, applied to paddy water, evaluated after 13 days
Method in brief: (§2)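 Each species was raised to two leaves before flooding to a 3 cm depth and dosing the water with compound. Injury was assessed by eye after 13 days under greenhouse conditions.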

[26] = tested on: sedge, umbrella (small-flower umbrella sedge, Cyperus difformis); assay: as above; conditions: 250 g ai/ha, Flood, applied to paddy water, evaluated after 13 days
Method in brief: as §2

[27] = tested on: barnyardgrass (Echinochloa crusgalli); assay: as above; conditions: 250 g ai/ha, Flood, applied to paddy water, evaluated after 13 days
Method in brief: as §2

rice (Oryza sativa) = assay: as above; conditions: 250 g ai/ha, Flood, applied to paddy water, evaluated after 13 days
Method in brief: as §2

[28] = 31 g ai/ha, postemergence, 0 = no effect, 100 = complete control
[29] = Postemergence, 125 g ai/ha, 0 is no effect, 100 is complete control

CC(C)OC(=O)C1C=CC(NC(=O)C2(C)CN(c3cc(F)cc(Cl)c3)C(=O)O2)C1 (stereo not shown) [Compound 4]
Soybean plant response rating (0-100) (soybean (Glycine max) [1]; 31 g ai/ha): 0 | Soybean plant response rating (0 to 100 scale) (soybean (Glycine max) [1]; 125 g ai/ha): 70 | Ragweed plant response rating (0-100) ([2]; 31 g ai/ha): 0 | Ragweed plant response rating (0 to 100 scale) ([2]; 125 g ai/ha): 0 | Foxtail, Green plant response rating (0-100) ([3]; 31 g ai/ha): 0 | Foxtail, Green plant response rating (0 to 100 scale) ([3]; 125 g ai/ha): 100 | Barnyardgrass plant response rating (0-100) ([4]; 31 g ai/ha): 50 | Barnyardgrass plant response rating (0 to 100 scale) ([4]; 125 g ai/ha): 100 | Ryegrass, Italian plant response rating (0-100) ([5]; 31 g ai/ha): 50 | Ryegrass, Italian plant response rating (0 to 100 scale) ([5]; 125 g ai/ha): 80 | Wheat plant response rating (0-100) ([6]; 31 g ai/ha): 40 | Wheat plant response rating (0 to 100 scale) ([6]; 125 g ai/ha): 90 | Kochia plant response rating (0-100) (kochia (Bassia scoparia) [7]; 31 g ai/ha): 40 | Kochia plant response rating (0 to 100 scale) (kochia (Bassia scoparia) [7]; 125 g ai/ha): 90 | Blackgrass plant response rating (0-100) ([8]; 31 g ai/ha): 0 | Blackgrass plant response rating (0 to 100 scale) ([8]; 125 g ai/ha): 60 | Oat, Wild plant response rating (0-100) ([9]; 31 g ai/ha): 50 | Oat, Wild plant response rating (0 to 100 scale) ([9]; 125 g ai/ha): 80 | Amaranth, Palmer plant response rating (0-100) ([10]; 31 g ai/ha): 30 | Amaranth, Palmer plant response rating (0 to 100 scale) ([10]; 125 g ai/ha): 100 | Corn plant response rating (0-100) (corn (Zea mays) [11]; 31 g ai/ha): 40 | Corn plant response rating (0 to 100 scale) (corn (Zea mays) [11]; 125 g ai/ha): 70 | Horseweed plant response rating (0-100) [12, 28]: 0 | Horseweed plant response rating (0 to 100 scale) [12, 29]: 70 | Soybean plant response rating (0-100) (soybean (Glycine max) [13]; [28]): 80 | Soybean plant response rating (0 to 100 scale) (soybean (Glycine max) [13]; [29]): 80 | Ragweed plant response rating (0-100) [14, 28]: 60 | Ragweed plant response rating (0 to 100 scale) [14, 29]: 80 | Foxtail, Green plant response rating (0-100) [15, 28]: 90 | Foxtail, Green plant response rating (0 to 100 scale) [15, 29]: 90 | Barnyardgrass plant response rating (0-100) [16, 28]: 100 | Barnyardgrass plant response rating (0 to 100 scale) [16, 29]: 100 | Ryegrass, Italian plant response rating (0-100) [17, 28]: 60 | Ryegrass, Italian plant response rating (0 to 100 scale) [17, 29]: 90 | Wheat plant response rating (0-100) [18, 28]: 90 | Wheat plant response rating (0 to 100 scale) [18, 29]: 90 | Kochia plant response rating (0-100) (kochia (Bassia scoparia) [19]; [28]): 70 | Kochia plant response rating (0 to 100 scale) (kochia (Bassia scoparia) [19]; [29]): 80 | Blackgrass plant response rating (0-100) [20, 28]: 80 | Blackgrass plant response rating (0 to 100 scale) [20, 29]: 90 | Galium plant response rating (0-100) [21, 28]: 80 | Galium plant response rating (0 to 100 scale) [21, 29]: 90 | Oat, Wild plant response rating (0-100) [22, 28]: 90 | Oat, Wild plant response rating (0 to 100 scale) [22, 29]: 90 | Amaranth, Palmer plant response rating (0-100) [23, 28]: 50 | Amaranth, Palmer / Pigweed, Palmer plant response rating (0 to 100 scale) [23, 29]: 90 | Corn plant response rating (0-100) (corn (Zea mays) [24]; [28]): 90 | Corn plant response rating (0 to 100 scale) (corn (Zea mays) [24]; [29]): 100 | Plant response rating, Ducksalad (0 to 100 scale, 0 is no effect and 100 is complete control) [25]: 70 | Plant response rating, Sedge, Umbrella (0 to 100 scale, 0 is no effect and 100 is complete control) [26]: 95 | Plant response rating, Barnyardgrass (0 to 100 scale, 0 is no effect and 100 is complete control) [27]: 90 | Plant response rating, Rice (0 to 100 scale, 0 is no effect and 100 is complete control) (rice (Oryza sativa)): 20
